Laboratory results taken from publication PMC10541198, “Specific quinone reductase 2 inhibitors reduce metabolic burden and reverse Alzheimer’s disease phenotype in mice” (The Journal of Clinical Investigation, 2023).
Where “and” joins values, the source holds several entries; their conditions need not be identical. Identical values can stand only once.

Tested on: 4-HNE
Experiment: IHC of 4-HNE in 5xFAD brain sections
Type: in vivo, mouse
Set-up: 4-HNE upper quartile / 4-HNE lower quartile: unit not given here
Conditions: for 4-HNE distribution (F test) / 4-HNE lower quartile / 4-HNE normalized volume (individual mice) / 4-HNE upper quartile: CA1, 5xFAD 1 month; for Figure 9A, IHC signal / Sup. Fig. 6-1A, IHC signal: individual animals; for 4-HNE vs vehicle: cortex, 5xFAD 1 month
Excerpt: Following the behavioral experiments, we assessed brain pathologies associated with AD present in the 5xFAD mice ([37]). Therefore, 5 days following the last behavioral experiment, and 1 month after the start of YB-537 consumption, mice were sacrificed, and coronal brain sections were used for IHC. Since the CA1 region of the hippocampus is affected during AD pathogenesis ([37]), and this brain region is involved in the behavioral paradigms used here, we acquired images of CA1. This was done with an Olympus IX83 confocal microscope using the same settings, antibodies, and exposures in all mice. Images were analyzed using Imaris (Bitplane; see methods). For each mouse, 3 coronal sections were used per antibody. In each section, the same region of CA1 was acquired, using the same image frame size and resolution, at all possible depths of the section — using a Z-stack of the whole section — to allow measurement of the fluorescent antibody marker volume, which was normalized to the brain volume from which it was taken. First, we measured oxidative stress, as indicated by 4-HNE ([38]) (Abcam, ab48506).
Perfused and fixed brain slices were blocked with 10% normal donkey serum (DNS) and 0.2% triton (Sigma-Aldrich) in PBS. Antibodies, including 4-HNE (AbCam, ab48506), Iba1 (AbCam, ab5076), AT-8 (Thermo, MN1020), Amyloid β (AbCam, ab201060), diluted in PBS with 10% DNS, were incubated at 4°C overnight. Secondary antibodies including donkey-anti-goat Alexa Fluor 568 (AbCam, ab175704), donkey-anti-mouse Cy 5 (Jackson Immuno Research, 715-175-151), and donkey-anti-rabbit DyLight 488 (AbCam, ab98488) all diluted 1:500 in PBS with 1% BSA, were applied to the slices at RT for 2 hours the next day. Slices were mounted onto glass slides using DAPI containing Vectashield (H-1200). Images were taken using a confocal microscope (Olympus IX83). Three slices were used per mouse per antibody. Tiling images of the dorsal CA1 and cortex (Bregma: –1.58mm to –2.30mm) were taken using ×20 objective, acquiring a Z-stack of the whole section. Analysis of the images was done blind by an experimenter unaware of the experimental conditions or details, using Imaris (Bitplane) software. A surface reconstruction module was used to extract the data as volumes of the used markers (4-HNE, phospho-tau, amyloid β, GFAP, and Iba1). Marker volume and intensity were normalized to the corresponding brain volume. The normalized value was averaged for each triplicate and presented here. […]
Brains were then briefly removed and placed in chilled, 4% PFA for 48 h, f oll owe d by immersion in 30% sucrose in 0.1 M PBS for a furt her 48 h. Bra i ns wer e t h e n stored at -80°C, until t he y were sliced into 40µm coronal sections usinga Lei ca CM 1950cryostat. Sli ces were then washed x3 in PBS and bl oc ke d for 1 h at RT using 10% normal donkey serum (DNS) and 0.2% triton (Sigma-Aldrich) in PBS. Antibodies, including 4- HNE (1:500, AbCam, ab48506), Iba1 (1:2,000, AbCam, ab5076), GFAP (Abcam, ab53554), phospho- tau (1:1,000, Thermo, MN1020) and amyloid β (1:1,000, AbCam, ab201060) diluted in PBS with 10% DNS were incubated at 4°C overnight. The next day, the slices were washed x3 times in PBS, and secondary antibodies including donkey anti goat A l e x a Fluor 568 (AbCam, ab175704), donkey anti-mouse Cy 5 (Jackson Immuno Research, 715- 175- 151) and donkey anti-rabbit DyLight 488 (AbCam, ab98488) all diluted 1:500 in PBS with 1% BSA, were applied to the slices at RT for 2 h. Following the incubation, the slices were washed x3 times in PBS, mounted onto gl ass slides, were uniformly covered in DAPI containing Vectashield (H-1200) and coverslips were a dde d. […]

For `Cc1ccc(-c2cn3cccc(C)c3n2)cc1S(=O)(=O)N1CCNCC1` [YB-537], the “4-HNE distribution (F test)” value (Females) was “significantly changes distribution”, the 4-HNE lower quartile (Females) was 0.0409 and the “4-HNE normalized volume (individual mice)” value (“4-HNE normalized volume” for short) (Females) was 0.0514 and 0.0389 and 0.0542 and 0.0413 and 0.0409 and 0.0433 and 0.0449. For the same compound, the 4-HNE upper quartile (Females) was 0.0514, the “4-HNE normalized volume” value (Males) was 0.0457 and 0.0892 and 0.0543 and 0.0490 and 0.0489 and 0.0313 and 0.0587 and 0.0539 and 0.0508 and the “4-HNE normalized volume” value (Males + Females) was 0.0514 and 0.0389 and 0.0542 and 0.0313 and 0.0587 and 0.0539 and 0.0508 and 0.0457 and 0.0892 and 0.0543 and 0.0490 and 0.0489 and 0.0413 and 0.0409 and 0.0433 and 0.0449. For the same compound, the 4-HNE lower quartile (both sexes) was 0.0418, the 4-HNE upper quartile (both sexes) was 0.0541 and the “4-HNE distribution (F test)” value (total population) was “tends to alter distribution”. The “Figure 9A, IHC signal” value (Cortex) was 0.0148 and 0.0125 and 0.0103 and 0.0159 and 0.0128 and 0.0161 and 0.0104 and 0.0145 and 0.0118, the “Sup. Fig. 6-1A, IHC signal” value (Females) was 0.0214 and 0.0277 and 0.0236 and 0.0333 and 0.0429 and 0.0318 and 0.0155 and the “Figure 9A, IHC signal” value (Hippocampus) was 0.0222 and 0.0139 and 0.0101 and 0.0187 and 0.0170 and 0.0160 and 0.0186 and 0.0121 and 0.0197. For the same compound, the “Sup. Fig. 6-1A, IHC signal” value (Males + Females) was 0.0231 and 0.0112 and 0.0400 and 0.0392 and 0.0271 and 0.0198 and 0.0429 and 0.0318 and 0.0155 and 0.0214 and 0.0277 and 0.0236 and 0.0333 and 0.0301 and 0.0174 and 0.0275, the “Sup. Fig. 6-1A, IHC signal” value (Males) was 0.0231 and 0.0112 and 0.0400 and 0.0392 and 0.0271 and 0.0198 and 0.0301 and 0.0174 and 0.0275 and the 4-HNE vs vehicle (females) was “not significantly altered”. The 4-HNE vs vehicle (males) was “not significantly altered” and the 4-HNE vs vehicle (total population) was “not significantly altered”.
